Experimental data reported in ChEMBL document CHEMBL1201862, “PubChem BioAssay data set” (2004).
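Results reflect a 48-hour exposure of cells in 96-well plates to compound at five concentrations. GI50 marks 50% less growth.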 Calls of active or inactive are those of the source. Rule as the data show it: active = GI50 up to about 1.1 µM and inactive = higher.

Key:
Assay in all cases: NCI-60 cell line screen, 48 h
A549 = tested on: A549
ACHN = tested on: ACHN
EKVX = tested on: EKVX
HCC 2998 = tested on: HCC 2998
HOP-92 = tested on: HOP-92
KM12 = tested on: KM12
NCI-H522 = tested on: NCI-H522
OVCAR-4 = tested on: OVCAR-4
SF-295 = tested on: SF-295
SN12C = tested on: SN12C
SR = tested on: SR
SW-620 = tested on: SW-620
TK-10 = tested on: TK-10
U-251 = tested on: U-251
UACC-62 = tested on: UACC-62
MCF7 = tested on: MCF7
NCI/ADR-RES = tested on: NCI/ADR-RES
T47D = tested on: T47D
MDA-MB-435 = tested on: MDA-MB-435

Row | Compound | GI50 (A549) | GI50 (ACHN) | GI50 (EKVX) | GI50 (HCC 2998) | GI50 (HOP-92) | GI50 (KM12) | GI50 (NCI-H522) | GI50 (OVCAR-4) | GI50 (SF-295) | GI50 (SN12C) | GI50 (SR) | GI50 (SW-620) | GI50 (TK-10) | GI50 (U-251) | GI50 (UACC-62) | GI50 (MCF7) | GI50 (NCI/ADR-RES) | GI50 (T47D) | GI50 (MDA-MB-435)
1 | O=C1NC(=O)C2C(=O)NC(=O)C1C2c1c(Cl)cccc1Cl (configuration not stated) | > 72.4 µM (inactive) | > 100 µM (inactive) | > 100 µM (inactive) | > 60.5 µM (inactive) | > 100 µM (inactive) | > 69.2 µM (inactive) | > 77.1 µM (inactive) | > 100 µM (inactive) | > 100 µM (inactive) | > 83.6 µM (inactive) | > 100 µM (inactive) | > 31.3 µM (inactive) | > 100 µM (inactive) | > 66.1 µM (inactive) | > 100 µM (inactive) | – | – | – | –
2 | CCC(=O)C(C)C1=Nc2nnc(CCCCCCCc3nnc4n3C(=O)C(C(C)C(=O)CC)=N4)n2C1=O (configuration not stated) | > 100 µM (inactive) | > 100 µM (inactive) | > 100 µM (inactive) | > 100 µM (inactive) | > 100 µM (inactive) | > 100 µM (inactive) | > 100 µM (inactive) | – | > 100 µM (inactive) | > 100 µM (inactive) | 21.6 µM (inactive) | > 100 µM (inactive) | > 100 µM (inactive) | > 100 µM (inactive) | > 100 µM (inactive) | – | – | – | –
3 | N#Cc1nc(C(O)c2ccccc2)oc1N (configuration not stated) | > 100 µM (inactive) | > 100 µM (inactive) | > 100 µM (inactive) | – | > 100 µM (inactive) | > 100 µM (inactive) | 76.6 µM (inactive) | – | > 100 µM (inactive) | > 100 µM (inactive) | – | > 100 µM (inactive) | > 100 µM (inactive) | > 100 µM (inactive) | > 100 µM (inactive) | > 100 µM (inactive) | > 100 µM (inactive) | > 100 µM (inactive) | –
4 | COC1(OC)CC2C(=O)N(Cc3ccccc3)C1C(S(=O)(=O)c1ccccc1)C2S(=O)(=O)c1ccccc1 (configuration not stated) | 29.6 µM (inactive) | 10.6 µM (inactive) | – | 17.1 µM (inactive) | 19.3 µM (inactive) | 16.4 µM (inactive) | 2.02 µM (inactive) | 15.1 µM (inactive) | 45.7 µM (inactive) | 12.7 µM (inactive) | 5.31 µM (inactive) | 2.13 µM (inactive) | 15.2 µM (inactive) | 13.6 µM (inactive) | 13.4 µM (inactive) | – | – | – | –
5 | NC1=C(O)c2cccc3cccc(c23)C1=O | > 100 µM (inactive) | > 100 µM (inactive) | > 100 µM (inactive) | > 100 µM (inactive) | > 100 µM (inactive) | > 100 µM (inactive) | > 100 µM (inactive) | > 100 µM (inactive) | > 100 µM (inactive) | > 100 µM (inactive) | – | > 100 µM (inactive) | > 100 µM (inactive) | > 100 µM (inactive) | > 100 µM (inactive) | – | – | – | –
6 | CC(=O)NNc1nc(C)c(C(=O)NNC(=O)C(=O)Nc2ccc(Cl)cc2Cl)s1 | 35.9 µM (inactive) | 29.2 µM (inactive) | 40.1 µM (inactive) | 40.6 µM (inactive) | 25.9 µM (inactive) | 53.7 µM (inactive) | 19.5 µM (inactive) | 22 µM (inactive) | 42.1 µM (inactive) | 45.6 µM (inactive) | – | 22.2 µM (inactive) | 74.3 µM (inactive) | 31.1 µM (inactive) | 25.2 µM (inactive) | – | – | – | –
7 | Cc1cccc(N2C(=O)C(=O)C(c3nc4ccccc4s3)C(=O)C2=O)c1C | > 100 µM (inactive) | > 100 µM (inactive) | > 100 µM (inactive) | > 100 µM (inactive) | > 100 µM (inactive) | – | > 100 µM (inactive) | > 100 µM (inactive) | > 100 µM (inactive) | > 100 µM (inactive) | > 100 µM (inactive) | > 100 µM (inactive) | > 100 µM (inactive) | > 100 µM (inactive) | > 100 µM (inactive) | – | – | – | –
8 | CC(=O)/C(=N\O)C(=O)Nc1ccc(Cl)cc1Cl | > 100 µM (inactive) | > 100 µM (inactive) | > 100 µM (inactive) | > 100 µM (inactive) | > 100 µM (inactive) | > 100 µM (inactive) | 97.9 µM (inactive) | > 100 µM (inactive) | > 100 µM (inactive) | > 100 µM (inactive) | – | > 100 µM (inactive) | > 100 µM (inactive) | > 100 µM (inactive) | > 100 µM (inactive) | – | – | – | –
9 | Cn1/c(=N\c2ccc(Cl)cc2)sc2ccccc21 | 32.5 µM (inactive) | 49.8 µM (inactive) | 21.1 µM (inactive) | 23.7 µM (inactive) | 23.3 µM (inactive) | 21.9 µM (inactive) | 4.98 µM (inactive) | > 100 µM (inactive) | 33.4 µM (inactive) | 75.3 µM (inactive) | > 100 µM (inactive) | 39.8 µM (inactive) | 43 µM (inactive) | 52.5 µM (inactive) | 40.6 µM (inactive) | – | 34.7 µM (inactive) | 15 µM (inactive) | 42.1 µM (inactive)
10 | CC1(C)CC(c2c[nH]c3ccccc23)=CC2=Nc3ccccc3C21O (configuration not stated) | 35.5 µM (inactive) | > 100 µM (inactive) | 63.1 µM (inactive) | – | 15 µM (inactive) | > 100 µM (inactive) | 34.8 µM (inactive) | 8.38 µM (inactive) | 38.5 µM (inactive) | > 100 µM (inactive) | – | 52.1 µM (inactive) | > 100 µM (inactive) | 33.2 µM (inactive) | > 100 µM (inactive) | – | – | – | –
11 | O=C(Nc1ccccc1)Oc1ccccc1C1CCCCC1 | 20.9 µM (inactive) | – | 20.1 µM (inactive) | 25.9 µM (inactive) | 10.4 µM (inactive) | 26.8 µM (inactive) | – | 14.6 µM (inactive) | 17.3 µM (inactive) | 18.9 µM (inactive) | 14.8 µM (inactive) | 25.5 µM (inactive) | 28.8 µM (inactive) | 12 µM (inactive) | 25.5 µM (inactive) | – | – | – | –
12 | Cc1c(C(=O)C/C(=N/NC(=O)c2ccccc2O)C(=O)Nc2ccccc2C(C)C)[n+]([O-])c2ccccc2[n+]1[O-] | 34.7 µM (inactive) | 36.6 µM (inactive) | 47.4 µM (inactive) | 52.5 µM (inactive) | – | 53.6 µM (inactive) | 20.9 µM (inactive) | 31.8 µM (inactive) | 56.9 µM (inactive) | 43.8 µM (inactive) | – | 35.4 µM (inactive) | > 100 µM (inactive) | 45 µM (inactive) | 20 µM (inactive) | – | – | – | –
13 | Cc1cccc(Nc2cn(CCOc3ccccc3)c(=O)n(CCOc3ccccc3)c2=O)c1 | > 100 µM (inactive) | > 100 µM (inactive) | 2.54 µM (inactive) | > 100 µM (inactive) | 56.2 µM (inactive) | > 100 µM (inactive) | – | > 100 µM (inactive) | > 100 µM (inactive) | > 100 µM (inactive) | > 100 µM (inactive) | > 100 µM (inactive) | – | > 100 µM (inactive) | > 100 µM (inactive) | > 100 µM (inactive) | – | – | > 100 µM (inactive)
14 | CCCCCCCCCCC(=O)CCCCCCC(=O)O | 15.3 µM (inactive) | 21.5 µM (inactive) | 31.8 µM (inactive) | 17.1 µM (inactive) | 16.9 µM (inactive) | 15.5 µM (inactive) | 21.4 µM (inactive) | 45.6 µM (inactive) | 21.5 µM (inactive) | 27.3 µM (inactive) | 18.2 µM (inactive) | 22.4 µM (inactive) | 32.1 µM (inactive) | 20.7 µM (inactive) | 17.9 µM (inactive) | – | – | – | –
15 | C[C@H](NS(=O)(=O)c1ccc(NC(=O)c2ccccc2)cc1)C(=O)O | > 100 µM (inactive) | > 100 µM (inactive) | > 100 µM (inactive) | > 100 µM (inactive) | > 100 µM (inactive) | > 100 µM (inactive) | > 100 µM (inactive) | > 100 µM (inactive) | > 100 µM (inactive) | > 100 µM (inactive) | – | > 100 µM (inactive) | > 100 µM (inactive) | > 100 µM (inactive) | > 100 µM (inactive) | – | – | – | –
16 | CN(C)CC1CCCC/C1=N\OC(=O)c1ccccc1 (configuration not stated) | > 100 µM (inactive) | > 100 µM (inactive) | > 100 µM (inactive) | > 100 µM (inactive) | > 100 µM (inactive) | > 100 µM (inactive) | > 100 µM (inactive) | > 100 µM (inactive) | > 100 µM (inactive) | > 100 µM (inactive) | > 100 µM (inactive) | > 100 µM (inactive) | > 100 µM (inactive) | > 100 µM (inactive) | > 100 µM (inactive) | – | – | – | –
17 | N#Cc1ccc(Oc2cccc(Oc3ccccc3)c2)cc1C#N | 42 µM (inactive) | 54.3 µM (inactive) | 37.5 µM (inactive) | > 10 µM (inactive) | > 10 µM (inactive) | > 10 µM (inactive) | 14.2 µM (inactive) | 36.7 µM (inactive) | 76.2 µM (inactive) | > 10 µM (inactive) | > 10 µM (inactive) | > 100 µM (inactive) | > 10 µM (inactive) | 71.1 µM (inactive) | > 10 µM (inactive) | – | – | – | –
18 | c1ccc2c(CNCCCCCCCCCCCCNCc3cccc4ccccc34)cccc2c1 | 1.85 µM (inactive) | 1.91 µM (inactive) | 3.1 µM (inactive) | – | 1.88 µM (inactive) | 1.61 µM (inactive) | 1.88 µM (inactive) | 1.58 µM (inactive) | 19.5 µM (inactive) | 3.53 µM (inactive) | 1.11 µM (active) | 1.79 µM (inactive) | 2.14 µM (inactive) | 1.77 µM (inactive) | 1.82 µM (inactive) | – | – | – | –
19 | COc1cc(CO)cc2c1[nH]c1ccccc12 [KOENOLINE] | > 25 µM (inactive) | > 25 µM (inactive) | – | > 25 µM (inactive) | > 25 µM (inactive) | > 25 µM (inactive) | 24.6 µM (inactive) | > 25 µM (inactive) | – | > 25 µM (inactive) | > 25 µM (inactive) | > 25 µM (inactive) | > 25 µM (inactive) | > 25 µM (inactive) | > 25 µM (inactive) | – | – | – | –
